Assay [1] deals with human A2a adenosine receptor (Homo sapiens (Human), UniProt P29274). Briefly: A2a receptor affinity radioligand binding assay ([3H] SCH58261, membranes from HEK293 or CHO cells). The settings on record: unstarred values: radioligand binding. The gist of the method:
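Displacement of tritiated SCH58261 (working dilution 4 nM) from recombinant human A2a receptor membranes (HEK293 or CHO), 60 min at room temperature in Tris pH 7.4/MgCl2 buffer after 15–30 min compound preincubation. Scintillation counting after filtration; normalized percent effect fitted 4-parameter logistic for IC50.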

Assay [2] deals with human A2b adenosine receptor (Homo sapiens (Human), UniProt P29275). The experiment in a line: A2B antagonism in cAMP cell-based assay (LANCE cAMP, HEK293 cells, 600 nM adenosine). The note with it: for IC50: values marked *: cAMP cell-based assay. The method, then: Measurement of A2A and A2B Antagonism in cAMP Cell-Based Assay
Chain of human A2b adenosine receptor (P29275 whole entry): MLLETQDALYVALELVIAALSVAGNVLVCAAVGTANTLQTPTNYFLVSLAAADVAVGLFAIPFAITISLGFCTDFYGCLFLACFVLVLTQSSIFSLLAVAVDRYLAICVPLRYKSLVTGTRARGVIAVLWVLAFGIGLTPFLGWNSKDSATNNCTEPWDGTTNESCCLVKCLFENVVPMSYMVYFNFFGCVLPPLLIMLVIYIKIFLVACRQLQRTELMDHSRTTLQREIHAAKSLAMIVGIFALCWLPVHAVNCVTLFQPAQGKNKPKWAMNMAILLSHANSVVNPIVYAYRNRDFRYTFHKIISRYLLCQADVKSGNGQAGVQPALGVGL
All subsequent liquid additions were performed using a multichannel pipettor. […] After this time 5 μL of either 300 nM or 600 nM adenosine (Sigma Cat. No. A9251) for A2A and A2B respectively was added and incubated for 30 minutes at 37° C. and 5% CO2 in a humidified environment. At this time detection mix was prepared by combining the LANCE Eu-W8044 labeled streptavidin and. Biotin-cAMP in detection buffer according to the manufacturers protocol. […] Curve fitting of the percent effect data versus the log of compound concentration used a 4-parameter concentration response curve fitting algorithm to calculate IC50 values.
Background: TR-FRET usually uses a lanthanide donor and a delayed reading to cut background.

Chain of human A2a adenosine receptor (P29274 whole entry): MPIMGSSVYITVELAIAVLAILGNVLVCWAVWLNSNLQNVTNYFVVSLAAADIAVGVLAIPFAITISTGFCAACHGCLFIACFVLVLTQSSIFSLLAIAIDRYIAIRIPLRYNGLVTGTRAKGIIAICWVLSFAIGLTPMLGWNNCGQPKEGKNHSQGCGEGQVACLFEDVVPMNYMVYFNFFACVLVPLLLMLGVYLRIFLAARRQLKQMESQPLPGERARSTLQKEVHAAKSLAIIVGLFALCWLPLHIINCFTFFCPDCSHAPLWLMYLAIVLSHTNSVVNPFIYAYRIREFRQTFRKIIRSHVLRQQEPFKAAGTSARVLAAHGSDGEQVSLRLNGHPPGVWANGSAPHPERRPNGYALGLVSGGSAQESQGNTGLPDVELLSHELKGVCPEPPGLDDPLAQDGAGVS

Usually IC50 stands for the concentration needed to halve the response being measured. A high value points to a need for much substance. As for `COc1cccc2c1nc(N)n1nc([C@@H]3CCCN(c4cnn(CC5(O)CCC5)c4C)C3)nc21` [Example 34, (R)-1-((4-(3-(5-amino-7-methoxy-[1,2,4]triazolo[1,5-c]quinazolin-2-yl)piperidin-1-yl)-5-methyl-1H-pyrazol-1-yl)methyl)cyclobutan-1-ol], the IC50 in assay [1] stood at 0.0016 µM; in assay [2] it was 0.219 µM.
The corresponding values for `Cn1cc(N2CCCC(c3nc4c5cccc(Cl)c5nc(N)n4n3)C2)cn1` (single isomer, unassigned) [Example 132B] are 0.0039 µM and 0.205 µM.
Turning to `CCn1ncc(N2CCC[C@@H](c3nc4c5cccc(OC)c5nc(N)n4n3)C2)c1C` [Example 15, (R)-2-(1-(1-ethyl-5-methyl-1H-pyrazol-4-yl)piperidin-3-yl)-7-methoxy-[1,2,4]triazolo[1,5-c]quinazolin-5-amine], the values for the IC50 in assay [1] and in assay [2] were 0.0005 µM and 0.147 µM, respectively.
As for `COc1cccc2c1nc(N)n1nc([C@@H]3CCC[C@@H](c4cnn(C)c4)C3)nc21` [Example 136B, 7-methoxy-2-((1R,3R)-3-(1-methyl-1H-pyrazol-4-yl)cyclohexyl)-[1,2,4]triazolo[1,5-c]quinazolin-5-amine], the IC50 in assay [1] stood at 0.0108 µM; in assay [2], 0.404 µM.
With `CCn1cc(N2CC[C@@H](c3nc4c5cccc(OC)c5nc(N)n4n3)C2)cn1` [Example 160, (R)-2-(1-(1-ethyl-1H-pyrazol-4-yl)pyrrolidin-3-yl)-7-methoxy-[1,2,4]triazolo[1,5-c]quinazolin-5-amine], the IC50 in assay [1] worked out at 0.019 µM; in assay [2], 0.395 µM.
`COc1cccc2c1nc(N)n1nc([C@@H]3CCCN(c4ncc(C(F)(F)F)cn4)C3)nc21` [Example 109, (R)-7-methoxy-2-(1-(5-(trifluoromethyl)pyrimidin-2-yl)piperidin-3-yl)-[1,2,4]triazolo[1,5-c]quinazolin-5-amine]: the IC50 in assay [1] was determined as 0.0526 µM. Further, the “*A2B cAMP ^ % @ 10000 nM” value in assay [2] (@ 10000 nM, marked *, printed with ^ and without inh.) worked out at 22% @ 10000 nM*.
Consider `COc1cccc2c1nc(N)n1nc([C@@H]3CCCN(c4ccc(=O)n(C5CC5)c4)C3)nc21` [Example 95, (R)-5-(3-(5-amino-7-methoxy-[1,2,4]triazolo[1,5-c]quinazolin-2-yl)piperidin-1-yl)-1-cyclopropylpyridin-2(1H)-one], for which the IC50 in assay [1] was found to be 0.0023 µM; in assay [2], 0.0591 µM.
The corresponding values for `COc1ccc2c(c1)nc(N)n1nc([C@H]3C[C@@H](C)CN(c4cn([C@@H](C)[C@H](C)O)nc4C)C3)nc21` [Example 219A, (2S,3S)-3-(4-((3S,5R)-3-(5-amino-8-methoxy-[1,2,4]triazolo[1,5-c]quinazolin-2-yl)-5-methylpiperidin-1-yl)-3-methyl-1H-pyrazol-1-yl)butan-2-ol] are 0.0005 µM and 1.97 µM.
Regarding `COc1cccc2c1nc(N)n1nc([C@@H]3CCCN(c4cnn5ncccc45)C3)nc21` [Example 12, (R)-7-methoxy-2-(1-(pyrazolo[1,5-b]pyridazin-3-yl)-piperidin-3-yl)-[1,2,4]triazolo[1,5-c]quinazolin-5-amine], the IC50 in assay [1] was found to be 0.0006 µM; in assay [2], 0.104 µM.
The like results for `COc1cccc2c1nc(N)n1nc([C@@H]3CCCN(c4cnn5c4CCC5)C3)nc21` [Example 13, (R)-2-(1-(5,6-dihydro-4H-pyrrolo[1,2-b]pyrazol-3-yl)piperidin-3-yl)-7-methoxy-[1,2,4]triazolo[1,5-c]quinazolin-5-amine] were, in that order, 0.0009 µM and 0.112 µM.
The corresponding values for `COc1ccc2c(c1)nc(N)n1nc([C@@H]3CCCN(c4cnn([C@H](C)[C@@H](C)O)c4)C3)nc21` [Example 220B, (2R,3R)-3-(4-((R)-3-(5-amino-8-methoxy-[1,2,4]triazolo[1,5-c]quinazolin-2-yl)piperidin-1-yl)-1H-pyrazol-1-yl)butan-2-ol] are 0.00139 µM and 0.0528 µM.
The corresponding values for `COc1cccc2c1nc(N)n1nc([C@@H]3CCCN(c4cnn(CC5(O)CCCC5)c4)C3)nc21` [Example 41, (R)-1-((4-(3-(5-amino-7-methoxy-[1,2,4]triazolo[1,5-c]quinazolin-2-yl)piperidin-1-yl)-1H-pyrazol-1-yl)methyl)cyclopentan-1-ol] are 0.0008 µM and 0.0222 µM.
`COc1ccc2c(c1)nc(N)n1nc([C@@H]3CCCN(c4cnn(C)c4)C3)nc21` [Example 177, (R)-8-methoxy-2-(1-(1-methyl-1H-pyrazol-4-yl)piperidin-3-yl)-[1,2,4]triazolo[1,5-c]quinazolin-5-amine]: the IC50 worked out at 0.0047 µM in assay [1] and 0.133 µM in assay [2].
The corresponding values for `COc1cc(F)c2c(c1)nc(N)n1nc([C@@H]3CC[C@H](C)N(c4cnn(CC(C)(C)O)c4)C3)nc21` [Example 223, 1-(4-((2S,5R)-5-(5-amino-10-fluoro-8-methoxy-[1,2,4]triazolo[1,5-c]quinazolin-2-yl)-2-methylpiperidin-1-yl)-1H-pyrazol-1-yl)-2-methylpropan-2-ol] are 0.001 µM and 0.0209 µM.
The corresponding values for `COc1cccc2c1nc(N)n1nc(C3CCC(C)N(c4cnn(CC5(O)CCC5)c4)C3)nc21` (single isomer, unassigned) [Example 144D] are 0.0012 µM and 0.004 µM.
The like results for `COc1cccc2c1nc(N)n1nc([C@@H]3CCCN(c4cnn([C@H]5CC[C@H](O)C5)c4)C3)nc21` [Example 29, (1S,3S)-3-(4-((R)-3-(5-amino-7-methoxy-[1,2,4]triazolo[1,5-c]quinazolin-2-yl)piperidin-1-yl)-1H-pyrazol-1-yl)cyclopentan-1-ol] were, in that order, 0.0013 µM and 0.0247 µM.
Turning to `COc1cccc2c1nc(N)n1nc(C3CCC(C)N(c4cnn(CC(C)(C)O)c4)C3)nc21` (single isomer, unassigned) [Example 143B, 1-(4-((2S,5S or 2R,5R)-5-(5-amino-7-methoxy-[1,2,4]triazolo[1,5-c]quinazolin-2-yl)-2-methylpiperidin-1-yl)-1H-pyrazol-1-yl)-2-methylpropan-2-ol], the concentration for half-maximal inhibition (IC50) in assay [1] was determined as 0.0009 µM; in assay [2], 0.604 µM.
Turning to `COc1cccc2c1nc(N)n1nc([C@@H]3CCCN(c4cnn(CCF)c4)C3)nc21` [Example 14, (R)-2-(1-(1-(2-fluoroethyl)-1H-pyrazol-4-yl)piperidin-3-yl)-7-methoxy-[1,2,4]triazolo[1,5-c]quinazolin-5-amine], the 50% inhibitory concentration (IC50) is 0.0007 µM in assay [1] and 0.031 µM in assay [2].
With `CC[C@H]1CC[C@H](c2nc3c4cccc(OC)c4nc(N)n3n2)CN1c1cnn(CC(C)(C)O)c1` [Example 216B, 1-(4-((2S,5S)-5-(5-amino-7-methoxy-[1,2,4]triazolo[1,5-c]quinazolin-2-yl)-2-ethylpiperidin-1-yl)-1H-pyrazol-1-yl)-2-methylpropan-2-ol], the figures for the IC50 in assay [1] and in assay [2] were 0.0004 µM and 0.0066 µM, respectively.
With `COc1cccc2c1nc(N)n1nc([C@@H]3CCCN(c4nccc(C(F)(F)F)n4)C3)nc21` [Example 111, (R)-7-methoxy-2-(1-(4-(trifluoromethyl)pyrimidin-2-yl)piperidin-3-yl)-[1,2,4]triazolo[1,5-c]quinazolin-5-amine], the 50% inhibitory concentration (IC50) in assay [1] is 0.0164 µM. For the same molecule, in assay [2] (@ 10000 nM, marked *), the “*A2B cAMP % inh. @ 10000 nM” value worked out at 10% inh. @ 10000 nM*.
Turning to `CCn1cc(N2CCC[C@@H](c3nc4c5cccc(OC)c5nc(N)n4n3)C2)cn1` [Example 4, (R)-2-(1-(1-ethyl-1H-pyrazol-4-yl)piperidin-3-yl)-7-methoxy-[1,2,4]triazolo[1,5-c]quinazolin-5-amine], the IC50 in assay [1] amounted to 0.0014 µM; in assay [2], 0.0495 µM.
The corresponding values for `COc1cccc2c1nc(N)n1nc([C@@H]3CCCN(c4cnn5c(C)cccc45)C3)nc21` [Example 19, (R)-7-methoxy-2-(1-(7-methylpyrazolo[1,5-a]pyridin-3-yl)piperidin-3-yl)-[1,2,4]triazolo[1,5-c]quinazolin-5-amine] are 0.0013 µM and 0.0709 µM.
The like results for `COc1cccc2c1nc(N)n1nc([C@@H]3CCN(c4cnn(C(C)(C)C)c4)C3)nc21` [Example 163, (R)-2-(1-(1-(tert-butyl)-1H-pyrazol-4-yl)pyrrolidin-3-yl)-7-methoxy-[1,2,4]triazolo[1,5-c]quinazolin-5-amine] were, in that order, 0.014 µM and 0.0421 µM.
The like results for `COc1cccc2c1nc(N)n1nc(C3CN(c4cnn(C5CC5)c4)CC(F)(F)C3)nc21` (single isomer, unassigned) [Example 154A] were, in that order, 0.0008 µM and 0.386 µM.
On to `COc1cccc2c1nc(N)n1nc([C@H]3C[C@@H](F)CN(c4cnn(C5CC5)c4)C3)nc21` [Example 148A], for which the values for the half-inhibitory concentration (IC50) in assay [1] and in assay [2] were 0.001 µM and 0.234 µM, respectively.
The corresponding values for `COc1cccc2c1nc(N)n1nc([C@@H]3CCCN(c4cnn(C(C)C)c4)C3)nc21` [Example 5, (R)-2-(1-(1-isopropyl-1H-pyrazol-4-yl)piperidin-3-yl)-7-methoxy-[1,2,4]triazolo[1,5-c]quinazolin-5-amine] are 0.0024 µM and 0.0395 µM.
For `COc1cccc2c1nc(N)n1nc([C@@H]3CCCN(c4cc(C(F)(F)F)n(C)n4)C3)nc21` [Example 78, (R)-7-methoxy-2-(1-(1-methyl-5-(trifluoromethyl)-1H-pyrazol-3-yl)piperidin-3-yl)-[1,2,4]triazolo[1,5-c]quinazolin-5-amine], the IC50 in assay [1] was 0.0033 µM; in assay [2], 2.5 µM.

For the origin of these results see US12263171B2, “7-, 8-, and 10-substituted amino triazolo quinazoline derivatives as adenosine receptor antagonists, pharmaceutical compositions and their use” (Merck Sharp & Dohme LLC, priority 2018, dated 2025).
